Data published in US20240109893A1, “PREPARATION AND APPLICATION METHOD OF HETEROCYCLIC COMPOUNDS AS KRAS INHIBITOR” (SHANGHAI KECHOW PHARMA, INC., priority 2020, published 2024).

system: H358 cells; assay: Cell activity experiment: activity test of H358 cells (MTT, 5 days); type: cell-based; conditions: 5 days incubation, absorbance 492 nm
Method: Example: Cell Activity Experiment
1. Cells: H358 purchased from Shanghai EK-Bioscience Biotechnology Co., Ltd.
2. Reagents: RPMI 1640 medium, Tryple, MTT (5 mg/mL), DMSO, and DPBS.
3. Instruments: an incubator at 37° C. and 5% CO2, a UTRAO microplate reader, a biosafety cabinet, a cell counting plate, and an Optec optical microscope.
4. Experimental consumables: 96-well plate Item No.: 3599, and 96-well round-bottomed dispensing plate.
Experimental Steps of Activity Test of H358 Cells:
1. Plating: Cells in the logarithmic growth phase were digested with Tryple and terminated with a fresh medium, and the cells were counted; and the cell concentration was adjusted to 55555 cells/mL with a fresh medium, wherein 90 μL was added to each well, and those on edges were filled with sterile DPBS.
2. The plate was incubated in the incubator at 37° C. and 5% CO2 for 24 h, so that the cells cover the bottom of the well by about 50%.
3. Drug preparation for experimental group: The drug was dissolved in DMSO to prepare a 20 mmol/L stock solution; the stock solution was further diluted with DMSO to 2 mmol/L, which was serially 3-fold diluted to form an […]-concentration gradient, resulting in a 200× serial compound solution; 10 μL of the serial compound solution was taken and added to 190 μLμL of RPMI1640 medium to obtain a 10× serial compound solution; and 10 μL of the 10× compound solution was taken and added to 90 μL 96-well cell culture plate, with three replicates per grade. The concentration gradient of the compound in the 96-well cell culture plate was […], 1.524158 nM, 4.572474 nM, 13.717420 nM, 41.152260 nM, 123.456800 nM, 370.370400 nM, 1111.111000 nM, 3333.333000 nM, and 10000.000000 nM, with 100 μL per well, and the final concentration of DMSO was 0.5%.
The control group contained the same volume of solvent as the experimental group and was diluted with a complete medium, with 100 μL per well.
4. Incubation was carried out for 5 days in an incubator with 5% CO2 at 37° C.
5. After 5 days, 10 μL of an MTT solution (5 mg/mL) was added to each well, and the culture was continued for 4 h.
6. The culture was terminated, and the culture solution was carefully sucked out of the well.
7. 150 μL of dimethyl sulfoxide (DMSO) was added to each of the null wells in the experimental group and the control group; and after shaking at a medium speed for 10 s, the crystal was fully dissolved, and the optical absorbance value thereof was measured at a wavelength of 492 nm.

| IC50 [nM] | Structure (SMILES) |
| --- | --- |
| 292 | C=C(F)C(=O)N1CCN(c2nc(OC[C@@]34CCCN3C[C@H](F)C4)nc3c(F)c(-c4cccc5c4CC4CC54)ccc23)C[C@@H]1CC#N (single isomer, unassigned) [Example 888] |
| 25 | C=CC(=O)N1CC[C@H]2[C@H]1CN2c1nc(OC[C@@]23CCCN2C[C@H](F)C3)nc2cc(-c3cccc4ccc(F)c(Cl)c34)c(Cl)cc12 [Example 475] |

same assay, conditions: Homo sapiens, NCI-H358, 120 h, 5 days incubation, absorbance 492 nm

| IC50 [nM] | Structure (SMILES) |
| --- | --- |
| 1500 | C=C(F)C(=O)N1CCN(C2=C(C#N)C(OC[C@@H]3C[C@@H](F)CN3C)=NC3C=C(c4cccc5ccc(F)c(Cl)c45)C=CC23)C[C@@H]1CC#N (stereo partly shown) [Example 626] |
| 18 | C=C(F)C(=O)N1CCN(c2nc(OC[C@@H]3CCCN3C)nc3c(F)c(-c4cncc5cccc(Cl)c45)ccc23)C[C@@H]1CC#N [Example 159] |
| 15 | C=CC(=O)N1CC[C@@H]2[C@H]1CN2c1nc(OC[C@@H]2C[C@@H](F)CN2C)nc2c(F)c(-c3ccc(F)c4c3CCCC4)ncc12 [Example 27] |
| 236 | C=CC(=O)N1CCN(c2nc(OC[C@@]34CCCN3C[C@H](F)C4)nc3c(F)c(-c4cccc5c4CC4CC54)ncc23)C[C@@H]1CC#N (single isomer, unassigned) [Example 878] |
| 30 | C=C(F)C(=O)N1CC[C@@H]2[C@H]1CN2c1nc(OCC23CCCN2CCC3)nc2c(F)c(-c3cccc4c3CCCC4)ncc12 [Example 14, 2-fluoro-1-((1R,5R)-6-(8-fluoro-2-((tetrahydro-1H-pyrrolizin-7a(5H)-yl)methoxy)-7-(5,6,7,8-tetrahydronaphthalen-1-yl)pyridino[4,3-d]pyrimidin-4-yl)-2,6-diazabicyclo[3.2.0]hept-2-yl)prop-2-en-1-one] |
| 138 | C=CC(=O)N1CCN(c2c(C#N)c(OCC34CCCN3CCC4)nc3cc(-c4cccc5ccc(F)c(Cl)c45)ccc23)C[C@@H]1CC#N [Example 620] |
| 5 | C=CC(=O)N1CC[C@@H]2[C@H]1CN2c1nc(OCC23CCCN2CCC3)nc2c(F)c(-c3cccc4c3CCCC4)ncc12 [Example 13, 1-((1R,5R)-6-(8-fluoro-2-((tetrahydro-1H-pyrrolizin-7a(5H)-yl)methoxy)-7-(5,6,7,8-tetrahydronaphthalen-1-yl)pyridino[4,3-d]pyrimidin-4-yl)-2,6-diazabicyclo[3.2.0]hept-2-yl)prop-2-en-1-one] |
| 884 | C=CC(=O)N1CCN(c2nc(OC[C@@H]3CCCN3C)nc3c(F)c(N4CCc5cc(F)ccc54)ccc23)CC1 [Example 617] |
| 102 | C=C(F)C(=O)N1CCN(c2nc(OC[C@@H]3C[C@@H](F)CN3C)nc3cc(-c4cncc5c4CCCC5)ccc23)C[C@@H]1CC#N [Example 145] |
| 2.4 | C=CC(=O)N1CCN(c2nc(OC[C@@H]3C[C@@H](F)CN3C)nc3c(F)c(-c4cccc5c4CCCC5)c(F)cc23)C[C@@H]1CC#N [Example 432] |
| 473 | C=CC(=O)N1CCN(c2nc(OC[C@@H]3CCCN3C)nc3c(F)c(N4CCCc5cc(F)ccc54)ccc23)C[C@@H]1CC#N [Example 616] |
| 1.8 | C=CC(=O)N1CCN(c2nc(OC[C@@]34CCCN3C[C@H](F)C4)nc3c(F)c(-c4cccc5c4[C@H]4C[C@H]4C5)ncc23)C[C@@H]1CC#N [Example 69] |
| 287 | C=CC(=O)N1CCN(c2nc(Oc3cccc4c3CCN(C)C4)nc3cc(-c4cccc5c4CCCC5)ccc23)C[C@@H]1CC#N [Example 109] |
| 0.34 | C=CC(=O)N1CCN(c2nc(OCC34CCCN3C[C@H](F)C4)nc3cc(-c4cccc5ccc(F)c(Cl)c45)ccc23)C[C@@H]1CC#N (stereo partly shown) [Example 99] |
| 330 | C=CC(=O)N1CCN(c2c(CC#N)c(OCC34CCCN3CCC4)nc3cc(-c4cccc5ccc(F)c(Cl)c45)c(F)cc23)C[C@@H]1CC#N [Example 621, (S)-4-(4-acryloyl-3-(cyanomethyl)piperazin-1-yl)-7-(8-chloro-7-fluoronaphthalen-1-yl)-6-fluoro-2-((tetrahydro-1H-pyrrolizin-7a(5H)-yl)methoxy)quinoline-3-acetonitrile] |
| 35 | C=CC(=O)N1CCN(c2nc(OC[C@@H]3C[C@@H](F)CN3C)nc3c(F)c(-c4ccc(F)c5c4CCCC5)ncc23)C[C@@H]1CC#N [Example 19] |
| 10 | C=CC(=O)N1CC[C@@H]2[C@H]1CN2c1nc(OCC23CCCN2CCC3)nc2c(F)c(-c3cncc4c3CCCC4)ncc12 [Example 45, 1-((1R,5R)-6-(8-fluoro-2-((tetrahydro-1H-pyrrolizin-7a(5H)-yl)methoxy)-7-(5,6,7,8-tetrahydroisoquinoline-4-yl)pyridino[4,3-d]pyrimidin-4-yl)-2,6-diazabicyclo[3.2.0]hept-2-yl)prop-2-en-1-one] |
| 0.3 | C=CC(=O)N1CCN(c2nc(OC[C@@]34CCCN3C[C@H](F)C4)nc3c(OC4CC4)c(-c4c(C)ccc5[nH]ncc45)c(Cl)cc23)C[C@@H]1CC#N [Example 933] |

| IC50 [nM] | Structure (SMILES) |
| --- | --- |
| 57 | C=CC(=O)N1CCN(c2nc(OC[C@@H]3CCCN3C)nc3c(F)c(-c4cccc5c4SCCC5)ncc23)C[C@@H]1CC#N [Example 49, 2-((S)-1-acryloyl-4-(8-fluoro-2-(((S)-1-methylpyrrolidin-2-yl)methoxy)-7-(thiochroman-8-yl)pyridino[4,3-d]pyrimidin-4-yl)piperazin-2-yl)acetonitrile] |
| 70 | C=CC(=O)N1CCN(c2nc(OC[C@@H]3C[C@@H](F)CN3C)nc3cc(-c4cccc5ccc(F)c(Cl)c45)c(Cl)cc23)C[C@@H]1CC#N [Example 469] |
| 30 | C=C(F)C(=O)N1CCN(c2nc(OCC34CCCN3C[C@H](F)C4)nc3cc(-c4cccc5c4CCCC5)ccc23)C[C@@H]1CC#N (stereo partly shown) [Example 117] |
| 0.07 | C=CC(=O)N1CCN(c2nc(OC[C@@]34CCCN3C[C@H](F)C4)nc3c(F)c(-c4cccc5c4CCCC5)ncc23)C[C@@H]1CC#N [Example 7, 2-((S)-1-acryloyl-4-(8-fluoro-2-(((2R,7aS)-2-fluorotetrahydro-1H-pyrrolizin-7a(5H)-yl)methoxy)-7-(5,6,7,8-tetrahydronaphthalen-1-yl)pyridino[4,3-d]pyrimidin-4-yl)piperazin-2-yl)acetonitrile] |
| 8 | C=CC(=O)N1CC[C@@H]2[C@H]1CN2c1nc(OC[C@@]23CCCN2C[C@H](F)C3)nc2c(F)c(-c3ccc(F)c4c3CCCC4)ncc12 [Example 31] |
| 3 | C=CC(=O)N1CCN(c2nc(OC[C@@]34CCCN3C[C@H](F)C4)nc3c(F)c(-c4cccc5c4CCCC5)ccc23)C[C@@H]1CC#N [Example 366] |
| 120 | C=C(F)C(=O)N1CCN(C2=C(C#N)C(OCC34CCCN3CCC4)=NC3C=C(c4cccc5ccc(F)c(Cl)c45)C=CC23)C[C@@H]1CC#N (stereo partly shown) [Example 627] |
| 15 | C=CC(=O)N1CCN(c2nc(OC[C@@H]3CCCN3C)nc3c(F)c(-c4cccc5c4CCCC5)c(F)cc23)C[C@@H]1CC#N [Example 429] |
| 8 | C=C(F)C(=O)N1CCN(c2nc(OC[C@@]34CCCN3C[C@H](F)C4)nc3c(F)c(-c4cccc5c4[C@@H]4C[C@@H]4C5)ncc23)C[C@@H]1CC#N [Example 72] |
| 18 | C=C(F)C(=O)N1CCN(c2nc(OCC34CCCN3CCC4)nc3cc(-c4cncc5c4CCCC5)ccc23)C[C@@H]1CC#N [Example 147] |
| 65 | C=CC(=O)N1CCN(c2nc(OC[C@@H]3CCCN3C)nc3cc(-c4cccc5ccc(F)c(Cl)c45)c(Cl)cc23)C[C@@H]1CC#N [Example 466] |
| 5 | C=CC(=O)N1CCN(c2nc(OCC34CCCN3C[C@H](F)C4)nc3cc(-c4cncc5c4CCCC5)ccc23)C[C@@H]1CC#N (stereo partly shown) [Example 148] |
| 25 | C=C(F)C(=O)N1CCN(c2nc(OC[C@@H]3C[C@@H](F)CN3C)nc3cc(-c4cccc5ccc(F)c(Cl)c45)ccc23)C[C@@H]1CC#N [Example 96] |
| 800 | C=C(F)C(=O)N1CCN(C2=C(C#N)C(OC[C@@H]3CCCN3C)=NC3C=C(c4cccc5ccc(F)c(Cl)c45)C=CC23)C[C@@H]1CC#N (stereo partly shown) [Example 624] |
| 50 | C=C(F)C(=O)N1CCN(c2nc(OC[C@@H]3C[C@@H](F)CN3C)nc3cc(-c4cncc5cccc(Cl)c45)ccc23)C[C@@H]1CC#N [Example 129] |
| 90 | C=C(F)C(=O)N1CCN(c2nc(OC[C@@H]3C[C@@H](F)CN3C)nc3c(F)c(-c4cccc5c4CCCC5)ncc23)C[C@@H]1CC#N [Example 6] |
| 75 | C=CC(=O)N1CCN(c2nc(OC[C@@H]3C[C@@H](F)CN3C)nc3cc(-c4cccc5cccc(Cl)c45)c(Cl)cc23)C[C@@H]1CC#N [Example 468] |
